Measured values: US20030232839A1, “Treatment of sleeping disorders using CNS sleep target modulators” (Hypnion, Inc., priority 2002, published 2003)

Columns and labels:
rat 5-HT2A receptor = rat 5-HT2A receptor (Rattus norvegicus, UniProt P14842); assay: 5-HT2A binding study, rat receptor; details: read-out: 5HT-2a Ki, Rat
human 5-HT2A receptor = human 5-HT2A receptor (Homo sapiens, UniProt P28223); assay: 5-HT2A binding study, human receptor; details: read-out: 5HT-2a Ki, Human
Male Wistar rats = assay: SCORE-2000 sleep-wake assay (EEG/EMG, locomotor activity, body temperature)
[1] = 3 mg/kg and 10 mg/kg IP at CT-5

Sequence of rat 5-HT2A receptor (P14842 whole entry): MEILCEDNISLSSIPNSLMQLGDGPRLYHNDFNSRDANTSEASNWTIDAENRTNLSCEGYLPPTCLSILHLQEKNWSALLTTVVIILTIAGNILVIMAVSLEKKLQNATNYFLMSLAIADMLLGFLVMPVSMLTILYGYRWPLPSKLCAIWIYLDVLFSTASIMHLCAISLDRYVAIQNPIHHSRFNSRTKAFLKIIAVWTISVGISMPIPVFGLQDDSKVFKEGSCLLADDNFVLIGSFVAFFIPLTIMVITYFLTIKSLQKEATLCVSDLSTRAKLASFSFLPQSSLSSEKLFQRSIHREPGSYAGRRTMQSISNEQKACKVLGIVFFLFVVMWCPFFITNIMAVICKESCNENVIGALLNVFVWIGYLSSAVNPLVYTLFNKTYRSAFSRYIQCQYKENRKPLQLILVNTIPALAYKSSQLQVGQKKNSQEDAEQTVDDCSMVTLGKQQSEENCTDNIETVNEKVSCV
Sequence of human 5-HT2A receptor (P28223 whole entry): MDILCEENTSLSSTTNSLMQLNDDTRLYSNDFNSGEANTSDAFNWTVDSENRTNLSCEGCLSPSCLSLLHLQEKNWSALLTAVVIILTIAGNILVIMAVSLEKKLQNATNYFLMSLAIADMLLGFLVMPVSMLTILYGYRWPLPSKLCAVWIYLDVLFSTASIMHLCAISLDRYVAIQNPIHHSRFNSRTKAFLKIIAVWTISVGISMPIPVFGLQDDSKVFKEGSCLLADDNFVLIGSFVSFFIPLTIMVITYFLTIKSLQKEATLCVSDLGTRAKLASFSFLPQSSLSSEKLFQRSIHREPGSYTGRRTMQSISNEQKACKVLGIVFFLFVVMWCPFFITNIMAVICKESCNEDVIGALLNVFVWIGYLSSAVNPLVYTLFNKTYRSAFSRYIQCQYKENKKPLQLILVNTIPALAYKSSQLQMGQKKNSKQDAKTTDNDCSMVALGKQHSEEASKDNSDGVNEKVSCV

SMILES | Ki (rat 5-HT2A receptor) | Ki (human 5-HT2A receptor) | activity on sleep-wakefulness in all measured variables (Male Wistar rats; 30 mg/kg) | increasing sleep and sleep consolidation (Male Wistar rats; 30 mg/kg) | duration of interference with sleep post-treatment (Male Wistar rats; [1]) | duration of reduction in nonREM sleep time post-treatment (Male Wistar rats; [1]) | rebound hypersomnolence after sleep interference (Male Wistar rats; [1])
Cl.O=C(O)C1CN(CCCn2nc3ccccn3c2=O)CCN1c1cccc(Cl)c1 (stereo not shown) [HY-2724] | 989 nM | > 10000 nM | inactive | ineffective | – | – | –
Clc1cccc(N2CCNCC2)c1 [m-CPP, meta-chlorophenylpiperazine] | – | – | – | – | 2 to 3 h | 2 to 3 h | followed by a rebound hypersomnolence
